SMILES strings stand for the structures. Bounds are passed on as bounds.

Sequence of recombinant Human Phosphodiesterase B2 (PDE4B2) (Q07343 1-564 isoform Q07343-2): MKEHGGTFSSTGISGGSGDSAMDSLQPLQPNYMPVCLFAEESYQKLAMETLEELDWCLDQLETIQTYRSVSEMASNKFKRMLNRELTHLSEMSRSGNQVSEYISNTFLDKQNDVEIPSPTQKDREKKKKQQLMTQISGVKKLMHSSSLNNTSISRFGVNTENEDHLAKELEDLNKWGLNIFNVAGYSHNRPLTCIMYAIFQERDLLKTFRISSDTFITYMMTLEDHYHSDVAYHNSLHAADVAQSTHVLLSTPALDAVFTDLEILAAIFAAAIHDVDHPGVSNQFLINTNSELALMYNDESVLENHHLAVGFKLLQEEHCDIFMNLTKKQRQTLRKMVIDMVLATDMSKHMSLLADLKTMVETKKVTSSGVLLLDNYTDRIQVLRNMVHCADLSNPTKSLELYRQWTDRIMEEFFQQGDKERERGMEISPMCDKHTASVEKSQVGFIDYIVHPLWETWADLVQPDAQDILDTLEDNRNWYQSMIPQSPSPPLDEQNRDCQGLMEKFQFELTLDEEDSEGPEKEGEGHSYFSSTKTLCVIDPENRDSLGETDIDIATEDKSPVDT

In the test the target is recombinant Human Phosphodiesterase B2 (PDE4B2) (Homo sapiens, UniProt Q07343). Put plainly: Human Phosphodiesterase B2 Alpha Screen Assay. It is filed as biochemical. As to conditions: cAMP substrate, Alpha Screen cAMP kit, 60 minutes at room temperature. On the procedure:
Human Phosphodiesterase B2 Alpha Screen Assay
The assay uses recombinant Human Phosphodiesterase B2 (PDE4B2) produced in house (PrAZL0133), stored at −20° C. The substrate uses cAMP, part of the Alpha Screen cAMP kit (Perkin Elmer, Cat# 6760625M), stored at 4° C. The Alpha Screen kit also includes biotinylated cAMP, acceptor and donor beads.
The assay additions were as follows: Test compounds and controls were added to white 384-well flat-bottom plates (Greiner, Cat# 781075), 0.2 μl in 100% DMSO, followed by 10 μl PDE4B2 in reaction buffer. The reaction buffer constitution was: 50 mM Tris (pH 7.5), 8.3 mM MgCl2, 1.7 mM EGTA and 0.01% (w/v) Brij®35. The enzyme and the compounds were incubated at room temperature for 15 minutes. Then 10 μl cAMP in reaction buffer was added. The assay was stopped after 60 minutes incubation at room temperature by adding 10 μl acceptor beads in detection buffer with 40 mM EDTA. The detection buffer constitution was: 5 mM Tris (pH 7.5), 0.1% (w/v) BSA and 0.1% (v/v) Tween 20. This addition followed by an addition of 10 μl donor beads in detection buffer, with biotinylated cAMP. The plates were then incubated, dark at room temperature, for 5 hours followed by measurement on a Fusion™-α analyser. IC50 values (presented in Table 1) were determined using Xlfit curve fitting using model 205.
Consider `COC(=O)CCC(=O)N[C@H]1CC[C@@H](n2c(=O)c3cc(F)cnc3n(-c3ccc(F)c(F)c3)c2=O)CC1` [Example 23, methyl 4-({cis-4-[1-(3,4-difluorophenyl)-6-fluoro-2,4-dioxo-1,4-dihydropyrido[2,3-d]pyrimidin-3(2H)-yl]cyclohexyl}amino)-4-oxobutanoate], for which the IC50 (commonly the concentration that inhibits the measured activity by half) was 3.8 nM.
Turning to `O=C(CNC(=O)c1ccccc1O)N[C@H]1CC[C@@H](n2c(=O)c3cc(F)cnc3n(-c3ccc(F)c(F)c3)c2=O)CC1` [Example 24, N-[2-({cis-4-[1-(3,4-difluorophenyl)-6-fluoro-2,4-dioxo-1,4-dihydropyrido[2,3-d]pyrimidin-3(2H)-yl]cyclohexyl}amino)-2-oxoethyl]-2-hydroxybenzamide], the IC50 is 0.6 nM.
For `COC(=O)c1ccc(C(=O)N[C@H]2CC[C@@H](n3c(=O)c4cc(F)cnc4n(-c4ccc(F)c(F)c4)c3=O)CC2)cc1` [Example 25, methyl 4-[({cis-4-[1-(3,4-difluorophenyl)-6-fluoro-2,4-dioxo-1,4-dihydropyrido[2,3-d]pyrimidin-3(2H)-yl]cyclohexyl}amino)carbonyl]benzoate], the IC50 was 1.9 nM.
Regarding `COc1ccc(C(=O)N[C@H]2CC[C@@H](n3c(=O)c4cc(F)cnc4n(-c4ccc(F)c(F)c4)c3=O)CC2)cc1O` [Example 26, N-{cis-4-[1-(3,4-difluorophenyl)-6-fluoro-2,4-dioxo-1,4-dihydropyrido[2,3-d]pyrimidin-3(2H)-yl]cyclohexyl}-3-hydroxy-4-methoxybenzamide], the IC50 stood at 1 nM.
With `COC(=O)CCCC(=O)N[C@H]1CC[C@@H](n2c(=O)c3cc(F)cnc3n(-c3ccc(F)c(F)c3)c2=O)CC1` [Example 27, methyl 5-({cis-4-[1-(3,4-difluorophenyl)-6-fluoro-2,4-dioxo-1,4-dihydropyrido[2,3-d]pyrimidin-3(2H)-yl]cyclohexyl}amino)-5-oxopentanoate], the IC50 turned out to be 1.7 nM.
As for `O=C(Cc1cccc(O)c1)N[C@H]1CC[C@@H](n2c(=O)c3cc(F)cnc3n(-c3ccc(F)c(F)c3)c2=O)CC1` [Example 28, N-{cis-4-[1-(3,4-difluorophenyl)-6-fluoro-2,4-dioxo-1,4-dihydropyrido[2,3-d]pyrimidin-3(2H)-yl]cyclohexyl}-2-(3-hydroxyphenyl)acetamide], the figure is 0.9 nM.
Regarding `COC(=O)c1cccc(C(=O)N[C@H]2CC[C@@H](n3c(=O)c4cc(F)cnc4n(-c4ccc(F)c(F)c4)c3=O)CC2)c1` [Example 29, methyl 3-[({cis-4-[1-(3,4-difluorophenyl)-6-fluoro-2,4-dioxo-1,4-dihydropyrido[2,3-d]pyrimidin-3(2H)-yl]cyclohexyl}amino)carbonyl]benzoate], the 50% inhibitory concentration (IC50) worked out at 1.2 nM.
As for `O=C(N[C@H]1CC[C@@H](n2c(=O)c3cc(F)cnc3n(-c3ccc(F)c(F)c3)c2=O)CC1)c1c(O)cccc1F` [Example 30, N-{cis-4-[1-(3,4-difluorophenyl)-6-fluoro-2,4-dioxo-1,4-dihydropyrido[2,3-d]pyrimidin-3(2H)-yl]cyclohexyl}-2-fluoro-6-hydroxybenzamide], the figure is 1.1 nM; as for `O=C(CCc1cccc(O)c1)N[C@H]1CC[C@@H](n2c(=O)c3cc(F)cnc3n(-c3ccc(F)c(F)c3)c2=O)CC1` [Example 31, N-{cis-4-[1-(3,4-difluorophenyl)-6-fluoro-2,4-dioxo-1,4-dihydropyrido[2,3-d]pyrimidin-3(2H)-yl]cyclohexyl}-3-(3-hydroxyphenyl)propanamide], 1.5 nM.
The figure for `O=C(N[C@H]1CC[C@@H](n2c(=O)c3cc(F)cnc3n(-c3ccc(F)c(F)c3)c2=O)CC1)c1n[nH]c2ccccc12` [Example 32, N-{cis-4-[1-(3,4-difluorophenyl)-6-fluoro-2,4-dioxo-1,4-dihydropyrido[2,3-d]pyrimidin-3(2H)-yl]cyclohexyl}-1H-indazole-3-carboxamide] is 0.6 nM; for `O=C(N[C@H]1CC[C@@H](n2c(=O)c3cc(F)cnc3n(-c3ccc(F)c(F)c3)c2=O)CC1)c1cn2ccccc2n1` [Example 33, N-{cis-4-[1-(3,4-difluorophenyl)-6-fluoro-2,4-dioxo-1,4-dihydropyrido[2,3-d]pyrimidin-3(2H)-yl]cyclohexyl}imidazo[1,2-a]pyridine-2-carboxamide] it is 0.5 nM.
The figure for `CSc1cccc(-n2c(=O)n([C@H]3CC[C@@H](NC(=O)c4cc(Cl)ccc4O)CC3)c(=O)c3cc(F)cnc32)c1` [Example 34, 5-chloro-N-{cis-4-[6-fluoro-1-[3-(methylthio)phenyl]-2,4-dioxo-1,4-dihydropyrido[2,3-d]pyrimidin-3(2H)-yl]cyclohexyl}-2-hydroxybenzamide] is 3.2 nM; for `CSc1cccc(-n2c(=O)n([C@H]3CC[C@@H](NC(=O)c4cc(C)ccc4O)CC3)c(=O)c3cc(F)cnc32)c1` [Example 35, N-{cis-4-[6-fluoro-1-[3-(methylthio)phenyl]-2,4-dioxo-1,4-dihydropyrido[2,3-d]pyrimidin-3(2H)-yl]cyclohexyl}-2-hydroxy-5-methylbenzamide] it is 1.4 nM; for `CSc1cccc(-n2c(=O)n([C@H]3CC[C@@H](NC(=O)c4cc(CO)ccc4O)CC3)c(=O)c3cc(F)cnc32)c1` [Example 36, N-{cis-4-[6-fluoro-1-[3-(methylthio)phenyl]-2,4-dioxo-1,4-dihydropyrido[2,3-d]pyrimidin-3(2H)-yl]cyclohexyl}-2-hydroxy-5-(hydroxymethyl)benzamide] it is 2.9 nM.
For `CSc1cccc(-n2c(=O)n([C@H]3CC[C@@H](NC(=O)[C@H](O)c4ccccc4)CC3)c(=O)c3cc(F)cnc32)c1` [Example 37, (2R)-N-{cis-4-[6-fluoro-1-[3-(methylthio)phenyl]-2,4-dioxo-1,4-dihydropyrido[2,3-d]pyrimidin-3(2H)-yl]cyclohexyl}-2-hydroxy-2-phenylacetamide], the 50% inhibitory concentration (IC50) stood at 0.5 nM.
As for `CSc1cccc(-n2c(=O)n([C@H]3CC[C@@H](NC(=O)[C@@H](O)c4ccccc4)CC3)c(=O)c3cc(F)cnc32)c1` [Example 38, (2S)-N-{cis-4-[6-fluoro-1-[3-(methylthio)phenyl]-2,4-dioxo-1,4-dihydropyrido[2,3-d]pyrimidin-3(2H)-yl]cyclohexyl}-2-hydroxy-2-phenylacetamide], the figure is less than 16 nM; as for `CSc1cccc(-n2c(=O)n([C@H]3CC[C@@H](NC(=O)CO)CC3)c(=O)c3cc(F)cnc32)c1` [Example 39, N-{cis-4-[6-fluoro-1-[3-(methylthio)phenyl]-2,4-dioxo-1,4-dihydropyrido[2,3-d]pyrimidin-3(2H)-yl]cyclohexyl}-2-hydroxyacetamide], 23.7 nM; as for `CS(=O)(=O)c1cccc(-n2c(=O)n([C@H]3CC[C@@H](NC(=O)c4cc(Cl)ccc4O)CC3)c(=O)c3cc(F)cnc32)c1` [Example 40, 5-chloro-N-{cis-4-[6-fluoro-1-[3-(methylsulfonyl)phenyl]-2,4-dioxo-1,4-dihydropyrido[2,3-d]pyrimidin-3(2H)-yl]cyclohexyl}-2-hydroxybenzamide], 90.6 nM.
As for `CS(=O)(=O)c1cccc(-n2c(=O)n([C@H]3CC[C@@H](NC(=O)c4cc(CO)ccc4O)CC3)c(=O)c3cc(F)cnc32)c1` [Example 41, N-{cis-4-[6-fluoro-1-[3-(methylsulfonyl)phenyl]-2,4-dioxo-1,4-dihydropyrido[2,3-d]pyrimidin-3(2H)-yl]cyclohexyl}-2-hydroxy-5-(hydroxymethyl)benzamide], the IC50 is 51.9 nM.
The figure for `CS(=O)(=O)c1cccc(-n2c(=O)n([C@H]3CC[C@@H](NC(=O)[C@H](O)c4ccccc4)CC3)c(=O)c3cc(F)cnc32)c1` [Example 42, (2R)-N-{cis-4-[6-fluoro-1-[3-(methylsulfonyl)phenyl]-2,4-dioxo-1,4-dihydropyrido[2,3-d]pyrimidin-3(2H)-yl]cyclohexyl}-2-hydroxy-2-phenylacetamide] is less than 16 nM.
The figure for `CS(=O)(=O)c1cccc(-n2c(=O)n([C@H]3CC[C@@H](NC(=O)[C@@H](O)c4ccccc4)CC3)c(=O)c3cc(F)cnc32)c1` [Example 43, (2S)-N-{cis-4-[6-fluoro-1-[3-(methylsulfonyl)phenyl]-2,4-dioxo-1,4-dihydropyrido[2,3-d]pyrimidin-3(2H)-yl]cyclohexyl}-2-hydroxy-2-phenylacetamide] is 36.4 nM; for `CS(=O)(=O)c1cccc(-n2c(=O)n([C@H]3CC[C@@H](NC(=O)CO)CC3)c(=O)c3cc(F)cnc32)c1` [Example 44, N-{cis-4-[6-fluoro-1-[3-(methylsulfonyl)phenyl]-2,4-dioxo-1,4-dihydropyrido[2,3-d]pyrimidin-3(2H)-yl]cyclohexyl}-2-hydroxyacetamide] it is 432 nM; for `COC(=O)c1cccc(-n2c(=O)n([C@H]3CC[C@@H](NC(=O)c4cc(C)ccc4O)CC3)c(=O)c3cc(F)cnc32)c1` [Example 45, methyl 3-[6-fluoro-3-{cis-4-[(2-hydroxy-5-methylbenzoyl)amino]cyclohexyl}-2,4-dioxo-3,4-dihydropyrido[2,3-d]pyrimidin-1(2H)-yl]benzoate] it is less than 16 nM.

Source of the values: patent publication US20080227797A1, “Pyridopyrimidine Derivatives as Pde4 Inhibitors for the Treatment of Inflammatory and Immune Diseases” (ASTRAZENECA AB, priority 2005, published 2008).
